{"source": "patent US20050191247A1", "about": "“Chlorhexidine compositions” (priority 2004, published 2005)", "key": {"[1]": {"system": "Suspensions of S. mutans", "experiment": "Bactericidal activity in suspensions of S. mutans", "format": "cell-based, Streptococcus mutans", "conditions": "within one hour of incubation; buffer control 10^6 cfu/ml"}, "[2]": {"system": "Streptococcus mutans biofilms", "experiment": "Test A: bactericidal activity in bacterial biofilm system", "format": "cell-based", "conditions": "flavoring or sweetening agent added to chlorhexidine composition", "experimental": "Rinse formulations were assessed for their bactericidal activity in a laboratory bacterial biofilm system. Streptococcus mutans biofilms were grown on slides in Trypticase Soy Broth supplemented with 0.5% Yeast Extract (TSB-YE), 1.0% glucose and 2.0% sucrose, and incubated for 48 hr in 5% CO2 at 37° C. Biofilms were exposed to the different formulations for 30 seconds with slow stirring. Biofilms were then extensively washed, harvested, and resuspended in fresh media. Samples were spiral-plated on Mitis-Salivarius agar. Numbers of viable bacteria were determined following standard spiral plating methodology.\nThe first series of experiments explored the effect of combinations of chlorhexidine-Cu^++ and chlorhexidine-Zn^++ on biofilms of Streptococcus mutans. The chlorhexidine (CHX) used in the experiments depicted in FIG. 1 was made by diluting a chlorhexidine gluconate stock solution (Chlorhexidine gluconate 20% solution, B.P. supplied by Medisca, Inc., 661 Route #3, Unit C, Plattsburg, N.Y. 12901. Telephone 1-800-932-1039) with ultrapure water to form a 0.12% chlorhexidine digluconate solution. […]\nBiofilms of S. mutans were made by immersing slides in Trypticase Soy Broth-Yeast Extract (TSB-YE) supplemented with 1.0% glucose and 2.0% sucrose. […] Numbers of viable cells were determined by standard Spiral-plating methodology. […]"}, "[3]": {"conditions": "cited from earlier work"}, "[4]": {"conditions": "0.12% rinse; Drug Facts and Comparisons, 1999; cited from earlier work"}, "[5]": {"system": "S. mutans", "experiment": "Test B: effect on ability of S. mutans to produce acid (culture pH over time)", "format": "cell-based, Streptococcus mutans", "conditions": "chlorhexidine 0.06%, cupric acetate and zinc chloride 0.1% w/v; TSB-YE with 1.0% glucose", "experimental": "Some oral bacteria are believed to cause cavities by producing acid in the mouth. Therefore, the ability of a composition to prevent and treat cavities can be measured by determining its effects on bacterial acid production.\nAccordingly, the effect of representative compositions on the ability of S. mutans to produce acid was also assessed. Biofilms were exposed to CHX-Cu^++ or CHX-Zn^++ as described, then washed, harvested, and resuspended in sterile TSB-YE supplemented with 1.0% glucose at standardized concentrations. Changes in culture pH were measured over time. Representative results of these studies are illustrated in FIG. 3.\nThe chlorhexidine (CHX) used in the experiments depicted in FIG. 3 was made by diluting a chlorhexidine gluconate stock solution (Chlorhexidine gluconate 20% solution, B.P. supplied by Medisca, Inc., 661 Route #3, Unit C, Plattsburg, N.Y. 12901. Telephone 1-800-932-1039) with ultrapure water to form a 0.12% chlorhexidine digluconate solution. This strength mimics the concentration of chlorhexidine gluconate found in commercial rinses (Peridex®—Zila Pharmaceuticals 5227 N. 7th Street, Phoenix, Ariz. 85014. Telephone (602) 266-6700) available in the United States.\nChlorhexidine was at a concentration of 0.06%, and cupric acetate and zinc chloride were at concentrations of 0.1% w/v. Exposure of chlorhexidine alone had little effect on acid production. […]"}}, "note": "Where two headings read alike, the source gives them in different places. Peptide text beside a SMILES is read from it.", "data": [{"smiles": "N=C(NCCCCCCNC(=N)NC(=N)Nc1ccc(Cl)cc1)NC(=N)Nc1ccc(Cl)cc1.O=C(O)[C@H](O)[C@@H](O)[C@H](O)[C@H](O)CO.O=C(O)[C@H](O)[C@@H](O)[C@H](O)[C@H](O)CO", "note": "[Chlorhexidine gluconate (0.12% CHX)]", "values": [{"measurement": "viable count after exposure", "setting": "[1]", "value": 0, "unit": "cfu/ml"}]}, {"smiles": "COC(=O)[C@H](Cc1ccccc1)NC(=O)[C@@H](N)CC(=O)O", "note": "[aspartame] (HELM PEPTIDE1{D.F.[CO[*:1]]}$$$$V2.0)", "values": [{"measurement": "effect of additive on the antibacterial activity of the chlorhexidine oral composition", "setting": "[2]", "value": "do not significantly decrease"}, {"measurement": "solubility in water", "setting": "[3]; 20° C.", "value": "approximately 1%"}, {"measurement": "solubility in water", "setting": "[3]; 50° C.", "value": "~3", "unit": "%"}]}, {"smiles": "[H]/N=C(\\N/C(=N/[H])NCCCCCCNC(=N)NC(=N)Nc1ccc(Cl)cc1)Nc1ccc(Cl)cc1", "note": "[chlorhexidine]", "values": [{"measurement": "chlorhexidine retained in the oral cavity following rinsing", "setting": "[4]", "value": "Approximately 30%"}, {"measurement": "effect on acid production (pH curves)", "setting": "[5]", "value": "little effect"}]}]}
